According to BigSolDB 2.1:

Conditions: in ethyl acetate

CCCCCOC(=O)Nc1nc(=O)n([C@@H]2O[C@H](C)[C@@H](O)[C@H]2O)cc1F
Conditions	solubility (mole fraction)
278.15 K	0.003
283.15 K	0.0039
288.15 K	0.0052
293.15 K	0.00678
298.15 K	0.00919
303.15 K	0.0112
308.15 K	0.0149
313.15 K	0.019
318.15 K	0.0237
323.15 K	0.0301
